Structures can show the parent of a compound that is named as a salt. Where two headings read alike, the source gives them in different places.
What was measured:
[1] = test system: Human breast cancer-derived MCF7 cells; conditions: 72 h
Description: (§1) Human breast cancer-derived MCF7 cells and lung cancer-derived A549 cells were used as a test system.
(§2) MCF7 cells and A549 cells cultured in a DMEM containing 10% fetal bovine serum were respectively dispensed at a cell density of about 5×10^3 cells/well on a 96-well plate, followed by culturing for about 24 hours.
(§3) The resulting formazane crystal was dissolved in dimethyl sulfoxide (DMSO), and absorbance of the solution was measured at 560 nm.

[2] = test system: lung cancer-derived A549 cells; conditions: human, 72 h
Description: as §1, §2, §3

[3] = test system: Human breast cancer-derived MCF7 cells; experiment: MTT assay, cancer cell viability and growth inhibition (MCF7); conditions: for IC50: read-out: GROWTH INHIBITORY CONCENTRATION (GIC50), MCF7, 72 hours, MTT; for CELLULAR VIABILITY (%): 72 hours, relative to untreated cells
Description: as §1, §2, §3

[4] = test system: lung cancer-derived A549 cells; experiment: MTT assay, cancer cell viability and growth inhibition (A549); conditions: for IC50: read-out: GROWTH INHIBITORY CONCENTRATION (GIC50), A549, 72 hours, MTT; for CELLULAR VIABILITY (%): 72 hours, relative to untreated cells
Description: as §1, §2, §3

IC50 [3]	IC50 [4]	SMILES	CELLULAR VIABILITY (%) ([1]; 2 mM)	CELLULAR VIABILITY (%) ([1]; 10 mM)	CELLULAR VIABILITY (%) ([2]; 2 mM)	CELLULAR VIABILITY (%) ([2]; 10 mM)	CELLULAR VIABILITY (%) ([3]; MCF7, 2 mM)	CELLULAR VIABILITY (%) ([3]; MCF7, 10 mM)	CELLULAR VIABILITY (%) ([3]; MCF7, 10 mM, listed as metformin butyrate)	CELLULAR VIABILITY (%) ([4]; A549, 2 mM)	CELLULAR VIABILITY (%) ([4]; A549, 10 mM)	CELLULAR VIABILITY (%) ([4]; A549, 10 mM, listed as metformin butyrate)	CELLULAR VIABILITY (%) ([3]; MCF7, 2 mM, hydrochloride)	CELLULAR VIABILITY (%) ([3]; MCF7, 10 mM, hydrochloride)	CELLULAR VIABILITY (%) ([4]; A549, 2 mM, hydrochloride)	CELLULAR VIABILITY (%) ([4]; A549, 10 mM, hydrochloride)
2200 µM	5200 µM	CCCC(=O)O [Butyric acid, butyric acid]	53.9%	22.3%	78.6%	28.3%	–	–	–	–	–	–	–	–	–	–
1600 µM	2500 µM	CN(C)C(=N)NC(=N)N [Metformin butyrate, N,N-dimethyl imidodicarbonimidic diamide butyrate]	–	–	–	–	45.5%	19.9%	less than 20%	57.7%	11.7%	less than 20%	–	–	–	–
> 10000 µM	3600 µM	CN(C)C(=N)N=C(N)N [Metformin hydrochloride, metformin hydrochloride]	–	–	–	–	–	–	–	–	–	–	86.5%	73.6%	63.5%	39.6%

Source: patent US20120135952A1, “BUTYRIC ACID SALT OF N,N-DIMETHYL IMIDOCARBON IMIDIC DIAMIDE, METHOD OF PREPARING SAME, AND PHARMACEUTICAL COMPOSITIONS AND COMBINATIONS CONTAINING SAME” (Hanall Biopharma Co., Ltd., priority 2009, published 2012)
